Results from ChEMBL document CHEMBL1201862, “PubChem BioAssay data set” (2004).
Calls of active or inactive are those of the source.

Legend:
Bcl-2-related protein A1 = target: T1, Bcl-2-related protein A1 (Mus musculus, UniProt Q07440); type: functional;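 further: confirmatory dose–response counterscreen on Bfl-1, used to check hits from a UBC13 polyubiquitin inhibitor campaign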
T1 sequence (Q07440 whole entry): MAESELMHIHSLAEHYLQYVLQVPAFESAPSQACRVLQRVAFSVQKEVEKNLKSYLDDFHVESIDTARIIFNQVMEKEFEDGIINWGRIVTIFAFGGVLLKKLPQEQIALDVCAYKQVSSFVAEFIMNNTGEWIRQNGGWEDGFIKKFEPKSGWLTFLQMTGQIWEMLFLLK

[1] = target: T2, Ubiquitin-conjugating enzyme E2 N (Homo sapiens, UniProt P61088); type: functional
T2 sequence (P61088 whole entry): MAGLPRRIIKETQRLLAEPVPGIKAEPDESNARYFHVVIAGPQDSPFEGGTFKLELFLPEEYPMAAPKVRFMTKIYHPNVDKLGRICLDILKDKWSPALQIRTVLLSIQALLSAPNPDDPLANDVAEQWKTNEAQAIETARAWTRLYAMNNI

[2] = target: T2, Ubiquitin-conjugating enzyme E2 N; type: functional; remark: listed apart in the source
[3] = target: Glyceraldehyde-3-phosphate dehydrogenase (Homo sapiens, UniProt P04406)
[4] = target: Alkaline phosphatase, placental type (Homo sapiens, UniProt P05187); experiment: PLAP enzyme inhibitors, confirmation, biochemical, luminescence (AID 1512); type: functional
[5] = target: T3, Alkaline phosphatase, tissue-nonspecific isozyme (Homo sapiens, UniProt P05186); experiment: human TNAP enzyme inhibitors, SAR follow-up, biochemical, luminescent, dose response (AID 1056)
T3 sequence (P05186 whole entry): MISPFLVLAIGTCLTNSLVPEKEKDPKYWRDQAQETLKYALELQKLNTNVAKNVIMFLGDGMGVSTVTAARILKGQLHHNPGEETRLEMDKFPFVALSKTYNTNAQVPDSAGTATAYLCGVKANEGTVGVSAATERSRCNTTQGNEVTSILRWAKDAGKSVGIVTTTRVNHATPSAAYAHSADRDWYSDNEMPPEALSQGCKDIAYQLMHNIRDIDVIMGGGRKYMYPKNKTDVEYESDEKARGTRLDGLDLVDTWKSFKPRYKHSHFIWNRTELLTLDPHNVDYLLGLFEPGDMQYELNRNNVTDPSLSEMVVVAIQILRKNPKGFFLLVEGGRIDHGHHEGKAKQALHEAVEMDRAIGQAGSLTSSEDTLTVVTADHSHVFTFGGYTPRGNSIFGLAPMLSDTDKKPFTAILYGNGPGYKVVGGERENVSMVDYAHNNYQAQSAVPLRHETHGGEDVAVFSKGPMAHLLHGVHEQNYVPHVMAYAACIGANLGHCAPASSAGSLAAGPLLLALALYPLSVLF

CHO-K1 = experiment: (§1) Counterscreen for antagonists of the orexin 1 receptor (OX1R; HCRTR1): Homogeneous time resolved fluorescence (HTRF)-based cell-based dose response assay to identify antagonists of the parental CHO-K1 cell line. [Related pubchem assays (depositor defined):AID434989, AID435008, AID463079, AID485270, AID492963, AID492964, AID492965, AID493232, AID504699, AID504701]; type: functional; conditions: Cricetulus griseus
[6] = as §1, with “Fluorescence-based” for “Homogeneous time resolved fluorescence (HTRF)-based”, “cell-based high throughput” for “cell-based”, “CHO” for “CHO-K1”; type: functional
[7] = target: T4, Orexin/Hypocretin receptor type 1 (Homo sapiens, UniProt O43613); experiment: Homogeneous Time Resolved Fluorescence (HTRF)-based cell-based high throughput dose response assay for antagonists of the orexin 1 receptor (OX1R; HCRTR1). [Related pubchem assays (depositor defined):AID434989, AID435008, AID463079, AID485270, AID492963, AID492964, AID492965, AID493232, AID504717, AID504718]; type: functional
T4 sequence (O43613 whole entry): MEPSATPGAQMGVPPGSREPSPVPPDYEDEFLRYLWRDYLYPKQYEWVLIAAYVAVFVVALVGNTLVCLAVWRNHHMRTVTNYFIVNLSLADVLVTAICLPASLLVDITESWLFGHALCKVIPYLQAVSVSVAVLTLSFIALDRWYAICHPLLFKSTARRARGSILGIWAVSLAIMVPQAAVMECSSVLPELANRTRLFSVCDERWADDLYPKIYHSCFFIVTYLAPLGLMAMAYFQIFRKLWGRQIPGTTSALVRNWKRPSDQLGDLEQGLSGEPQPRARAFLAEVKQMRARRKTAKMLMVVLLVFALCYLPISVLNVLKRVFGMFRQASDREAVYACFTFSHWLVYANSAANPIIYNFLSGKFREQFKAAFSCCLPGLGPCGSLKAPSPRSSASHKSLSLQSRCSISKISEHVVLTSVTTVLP

[8] = target: T4, Orexin/Hypocretin receptor type 1; experiment: Fluorescence-based cell-based high throughput dose response assay for antagonists of the orexin 1 receptor (OX1R; HCRTR1). [Related pubchem assays (depositor defined):AID434989, AID435008, AID463079, AID485270, AID492963, AID492964, AID492965, AID493232, AID504717, AID504718]; type: functional
[9] = target: T5, Replicative DNA helicase DnaB (Mycobacterium tuberculosis, UniProt P9WMR3); experiment: DnaB intein splicing inhibitors, dose response, biochemical, cell-free fluorescence (AID 449749); type: functional
T5 sequence (P9WMR3 whole entry): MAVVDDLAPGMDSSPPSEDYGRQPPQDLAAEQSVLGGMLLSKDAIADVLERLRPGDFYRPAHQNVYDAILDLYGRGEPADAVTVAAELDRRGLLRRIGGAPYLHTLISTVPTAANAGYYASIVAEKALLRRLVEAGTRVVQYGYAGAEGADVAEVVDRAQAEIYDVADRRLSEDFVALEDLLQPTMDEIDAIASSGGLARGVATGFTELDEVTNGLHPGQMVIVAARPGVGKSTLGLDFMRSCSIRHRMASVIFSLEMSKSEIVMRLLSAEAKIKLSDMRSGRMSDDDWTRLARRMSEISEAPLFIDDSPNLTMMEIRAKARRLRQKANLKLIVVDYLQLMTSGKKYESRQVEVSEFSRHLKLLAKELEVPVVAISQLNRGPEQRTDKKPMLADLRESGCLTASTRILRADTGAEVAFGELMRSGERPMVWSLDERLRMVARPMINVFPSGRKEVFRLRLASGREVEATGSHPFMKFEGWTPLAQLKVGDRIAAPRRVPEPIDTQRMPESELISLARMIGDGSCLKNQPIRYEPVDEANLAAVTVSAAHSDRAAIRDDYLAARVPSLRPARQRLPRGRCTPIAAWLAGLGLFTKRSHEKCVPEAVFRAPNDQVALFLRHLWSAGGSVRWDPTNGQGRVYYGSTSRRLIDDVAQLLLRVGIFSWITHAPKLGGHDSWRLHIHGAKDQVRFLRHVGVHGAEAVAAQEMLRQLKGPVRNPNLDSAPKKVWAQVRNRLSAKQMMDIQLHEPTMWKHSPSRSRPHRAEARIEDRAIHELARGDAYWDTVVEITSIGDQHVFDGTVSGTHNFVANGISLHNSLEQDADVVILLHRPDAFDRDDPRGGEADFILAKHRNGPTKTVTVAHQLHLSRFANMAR

Protein RecA = target: T6, Protein RecA (Mycobacterium tuberculosis, UniProt P9WHJ3); experiment: Fluorescence Cell-Free Homogeneous Dose Retest to Identify Inhibitors of RecA-Intein Splicing Activity. [Related pubchem assays (depositor defined):AID2097, AID2223, AID489010, AID492950]; type: functional
T6 sequence (P9WHJ3 whole entry): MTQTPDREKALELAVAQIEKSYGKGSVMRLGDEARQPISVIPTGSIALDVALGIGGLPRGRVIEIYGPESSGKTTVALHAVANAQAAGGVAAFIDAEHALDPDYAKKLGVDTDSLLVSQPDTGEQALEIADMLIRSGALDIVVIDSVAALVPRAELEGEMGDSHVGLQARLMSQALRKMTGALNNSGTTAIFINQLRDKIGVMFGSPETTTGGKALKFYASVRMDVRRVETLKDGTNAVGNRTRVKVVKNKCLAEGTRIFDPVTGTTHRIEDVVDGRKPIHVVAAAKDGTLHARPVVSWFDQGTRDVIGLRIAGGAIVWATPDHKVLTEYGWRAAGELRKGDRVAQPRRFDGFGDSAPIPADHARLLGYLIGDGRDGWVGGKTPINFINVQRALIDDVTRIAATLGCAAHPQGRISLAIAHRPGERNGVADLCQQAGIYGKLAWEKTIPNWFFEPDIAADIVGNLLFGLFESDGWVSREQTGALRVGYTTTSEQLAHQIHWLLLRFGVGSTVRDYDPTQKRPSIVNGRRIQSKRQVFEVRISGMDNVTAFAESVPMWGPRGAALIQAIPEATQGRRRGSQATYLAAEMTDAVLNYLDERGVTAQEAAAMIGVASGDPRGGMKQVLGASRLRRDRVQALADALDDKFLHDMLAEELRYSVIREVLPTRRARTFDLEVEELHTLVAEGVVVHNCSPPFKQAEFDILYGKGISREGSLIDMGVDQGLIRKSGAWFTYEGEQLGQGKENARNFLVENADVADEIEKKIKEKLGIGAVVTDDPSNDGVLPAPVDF

[10] = target: T7, G-protein coupled receptor 35 (Homo sapiens, UniProt Q9HC97); experiment: GPR35 antagonists blocking zaprinast-driven arrestin recruitment, primary screen, imaging, U2OS, beta-arrestin-GFP, zaprinast agonist (AID 2058); type: functional;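 further: antagonist potency meaning inhibition of agonist-induced arrestin redistribution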
[11] = target: T7, G-protein coupled receptor 35; experiment: SAR Analysis for the identification of Selective Antagonists of ERK1/2 Activity in GPR35-Overexpressing U2OS Cells. [Related pubchem assays: 2079, 2058 ]; type: functional, cell-based
[12] = target: G-protein coupled receptor 55 (Homo sapiens, UniProt Q9Y2T6); experiment: GPR55 antagonists, SAR follow-up, counter-screen for GPR35 antagonist project, imaging, image-based (AID 2397); type: functional
[13] = target: Intestinal-type alkaline phosphatase (Homo sapiens, UniProt P09923); experiment: human intestinal alkaline phosphatase activators, dose response, biochemical, luminescence, uHTS hits (AID 463120); type: functional
[14] = target: Glucose-6-phosphate 1-dehydrogenase (Homo sapiens, UniProt P11413); experiment: human G6PD enzyme inhibitors, dose response, selectivity assay for P. falciparum G6PD inhibitor project, biochemical, fluorescence (AID 504792); type: functional
[15] = Luminescence Cell-Based Dose Retest to Confirm Inhibitors of Cancer Stem Cells. [Related pubchem assays (depositor defined):AID2717, AID2721]; type: functional; conditions: Homo sapiens
[16] = target: T8, Heat shock factor protein 1 (Mus musculus, UniProt P38532); experiment: HSF1 potentiators in luciferase reporter cells, confirmation, cell-based, NIH3T3, luminescence, dose retest (AID 435004); type: functional;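 further: stress induced by proteasome inhibitor MG132 added 30 min after compound; luciferase reporter driven by HSF1 response element in NIH3T3 cells; actives raise luminescence as potentiators of the MG132 stress response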
T8 sequence (P38532 whole entry): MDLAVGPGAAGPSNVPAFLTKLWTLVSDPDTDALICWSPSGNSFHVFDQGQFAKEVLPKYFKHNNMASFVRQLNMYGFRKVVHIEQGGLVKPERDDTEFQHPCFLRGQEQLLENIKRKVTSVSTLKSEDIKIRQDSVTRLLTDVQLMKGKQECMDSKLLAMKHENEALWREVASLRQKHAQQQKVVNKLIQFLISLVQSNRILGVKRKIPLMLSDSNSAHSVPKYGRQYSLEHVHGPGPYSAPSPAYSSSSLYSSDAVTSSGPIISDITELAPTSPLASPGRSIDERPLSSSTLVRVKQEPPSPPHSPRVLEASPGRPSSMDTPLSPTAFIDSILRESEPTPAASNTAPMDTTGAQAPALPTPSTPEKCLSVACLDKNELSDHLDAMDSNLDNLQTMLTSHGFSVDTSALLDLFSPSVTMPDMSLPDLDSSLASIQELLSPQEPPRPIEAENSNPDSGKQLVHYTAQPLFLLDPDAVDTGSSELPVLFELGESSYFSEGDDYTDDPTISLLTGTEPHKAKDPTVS

[17] = Intein inhibitors as potential Tuberculosis drugs, a cytotoxicity screen. [Related pubchem assays (depositor defined):AID2221, AID2223, AID434968, AID435010, AID449749, AID449750, AID489010]; type: functional
[18] = target: Voltage-dependent T-type calcium channel subunit alpha-1H (Homo sapiens, UniProt O95180); experiment: Cav3.2 T-type channel blockers, cell-based, SynthLib3 library, HEK293 Cav3.2, fluorescence (AID 493041); type: functional
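Wherever CC50 is given: cells exposed to compound for 72 hours before luminescence readout.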

Chain of Voltage-dependent T-type calcium channel subunit alpha-1H (O95180 whole entry): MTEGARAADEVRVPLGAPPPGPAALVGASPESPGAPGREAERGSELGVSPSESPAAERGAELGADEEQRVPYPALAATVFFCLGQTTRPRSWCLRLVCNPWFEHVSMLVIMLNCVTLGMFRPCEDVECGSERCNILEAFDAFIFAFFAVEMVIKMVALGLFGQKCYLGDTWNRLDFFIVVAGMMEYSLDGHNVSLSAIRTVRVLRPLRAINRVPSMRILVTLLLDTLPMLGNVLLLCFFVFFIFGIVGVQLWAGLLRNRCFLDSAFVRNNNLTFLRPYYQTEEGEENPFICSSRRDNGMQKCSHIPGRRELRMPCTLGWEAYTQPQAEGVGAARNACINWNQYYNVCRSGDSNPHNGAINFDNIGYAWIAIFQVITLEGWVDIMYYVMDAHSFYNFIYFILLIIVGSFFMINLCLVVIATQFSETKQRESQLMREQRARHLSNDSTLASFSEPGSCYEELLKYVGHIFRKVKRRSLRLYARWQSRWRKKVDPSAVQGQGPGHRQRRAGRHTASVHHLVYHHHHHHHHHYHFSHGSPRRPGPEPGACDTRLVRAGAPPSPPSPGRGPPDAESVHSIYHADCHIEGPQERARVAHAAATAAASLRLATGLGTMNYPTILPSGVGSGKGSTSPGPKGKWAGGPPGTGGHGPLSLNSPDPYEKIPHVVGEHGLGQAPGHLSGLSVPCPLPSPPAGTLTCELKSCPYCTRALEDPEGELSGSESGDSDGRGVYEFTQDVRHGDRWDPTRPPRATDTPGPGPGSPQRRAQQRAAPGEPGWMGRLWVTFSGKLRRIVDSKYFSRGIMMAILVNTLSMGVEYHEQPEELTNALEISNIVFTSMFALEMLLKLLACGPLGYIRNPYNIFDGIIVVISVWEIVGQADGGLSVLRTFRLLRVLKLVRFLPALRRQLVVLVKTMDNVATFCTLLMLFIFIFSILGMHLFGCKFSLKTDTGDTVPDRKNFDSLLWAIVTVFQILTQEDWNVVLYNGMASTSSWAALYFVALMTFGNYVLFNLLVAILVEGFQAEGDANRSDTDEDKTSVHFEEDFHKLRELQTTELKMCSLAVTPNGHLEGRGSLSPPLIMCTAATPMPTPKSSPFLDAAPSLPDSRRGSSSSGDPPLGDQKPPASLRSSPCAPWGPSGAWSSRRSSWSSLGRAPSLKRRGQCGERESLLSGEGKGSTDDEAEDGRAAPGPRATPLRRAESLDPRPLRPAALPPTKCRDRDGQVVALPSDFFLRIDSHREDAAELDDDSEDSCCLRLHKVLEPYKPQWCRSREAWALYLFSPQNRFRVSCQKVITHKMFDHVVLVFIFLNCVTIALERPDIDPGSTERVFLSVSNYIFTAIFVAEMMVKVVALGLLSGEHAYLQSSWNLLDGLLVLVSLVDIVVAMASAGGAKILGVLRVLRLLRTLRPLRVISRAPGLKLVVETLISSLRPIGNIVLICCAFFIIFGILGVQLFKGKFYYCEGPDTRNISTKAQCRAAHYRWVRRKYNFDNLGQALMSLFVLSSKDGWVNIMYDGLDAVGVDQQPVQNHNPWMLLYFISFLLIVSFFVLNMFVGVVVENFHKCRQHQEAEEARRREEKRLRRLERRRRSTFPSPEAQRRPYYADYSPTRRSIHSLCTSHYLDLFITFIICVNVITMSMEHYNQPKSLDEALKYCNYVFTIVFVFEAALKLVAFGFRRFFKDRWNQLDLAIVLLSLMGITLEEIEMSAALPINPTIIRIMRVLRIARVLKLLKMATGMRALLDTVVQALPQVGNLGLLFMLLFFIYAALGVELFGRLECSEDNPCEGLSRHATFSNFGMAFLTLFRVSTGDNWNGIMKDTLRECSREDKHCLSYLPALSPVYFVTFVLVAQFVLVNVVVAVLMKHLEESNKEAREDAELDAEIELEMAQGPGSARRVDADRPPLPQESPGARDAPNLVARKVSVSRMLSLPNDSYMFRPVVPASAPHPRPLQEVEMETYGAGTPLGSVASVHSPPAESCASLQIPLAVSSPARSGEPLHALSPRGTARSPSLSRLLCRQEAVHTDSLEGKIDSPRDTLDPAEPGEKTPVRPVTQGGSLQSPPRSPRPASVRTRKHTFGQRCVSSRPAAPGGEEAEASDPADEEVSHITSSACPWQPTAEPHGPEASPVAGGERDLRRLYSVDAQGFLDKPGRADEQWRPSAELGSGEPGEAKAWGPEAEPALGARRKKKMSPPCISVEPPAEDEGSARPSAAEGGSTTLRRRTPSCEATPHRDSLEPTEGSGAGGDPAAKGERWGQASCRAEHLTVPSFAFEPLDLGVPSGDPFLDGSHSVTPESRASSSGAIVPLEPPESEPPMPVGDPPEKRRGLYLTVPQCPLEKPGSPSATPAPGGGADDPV
T7 sequence (Q9HC97 whole entry): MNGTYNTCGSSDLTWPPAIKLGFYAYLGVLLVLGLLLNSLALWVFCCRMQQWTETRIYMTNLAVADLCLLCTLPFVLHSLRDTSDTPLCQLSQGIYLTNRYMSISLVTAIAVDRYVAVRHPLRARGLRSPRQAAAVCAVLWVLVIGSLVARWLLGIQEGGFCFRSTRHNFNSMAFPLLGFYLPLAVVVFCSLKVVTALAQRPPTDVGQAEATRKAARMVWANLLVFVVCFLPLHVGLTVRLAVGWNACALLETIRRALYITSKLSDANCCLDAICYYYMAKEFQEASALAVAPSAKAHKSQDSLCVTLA
Chain of Glyceraldehyde-3-phosphate dehydrogenase (P04406 whole entry): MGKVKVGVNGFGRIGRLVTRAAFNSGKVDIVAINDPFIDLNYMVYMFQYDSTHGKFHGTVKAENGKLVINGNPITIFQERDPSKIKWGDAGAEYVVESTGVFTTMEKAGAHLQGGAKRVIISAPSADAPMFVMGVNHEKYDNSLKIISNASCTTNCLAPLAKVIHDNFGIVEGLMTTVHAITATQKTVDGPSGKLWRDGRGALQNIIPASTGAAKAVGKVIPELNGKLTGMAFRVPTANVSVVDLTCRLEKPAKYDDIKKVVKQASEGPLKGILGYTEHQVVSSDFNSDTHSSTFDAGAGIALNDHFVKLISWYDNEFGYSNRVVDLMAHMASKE
Chain of Intestinal-type alkaline phosphatase (P09923 whole entry): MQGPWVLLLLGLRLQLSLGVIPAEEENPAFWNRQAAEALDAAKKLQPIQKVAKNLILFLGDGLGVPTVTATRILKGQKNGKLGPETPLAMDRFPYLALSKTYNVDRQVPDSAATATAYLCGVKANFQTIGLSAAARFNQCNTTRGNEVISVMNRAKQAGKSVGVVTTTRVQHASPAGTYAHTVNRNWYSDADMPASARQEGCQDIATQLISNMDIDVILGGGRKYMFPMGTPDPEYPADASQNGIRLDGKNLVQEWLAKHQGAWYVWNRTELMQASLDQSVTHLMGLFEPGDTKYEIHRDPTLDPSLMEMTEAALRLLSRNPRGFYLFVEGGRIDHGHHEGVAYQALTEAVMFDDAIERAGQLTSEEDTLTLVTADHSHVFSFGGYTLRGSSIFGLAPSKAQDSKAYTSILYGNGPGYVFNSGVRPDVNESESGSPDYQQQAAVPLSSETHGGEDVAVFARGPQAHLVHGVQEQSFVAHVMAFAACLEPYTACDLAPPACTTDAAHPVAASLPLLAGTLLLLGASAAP
Chain of Glucose-6-phosphate 1-dehydrogenase (P11413 whole entry): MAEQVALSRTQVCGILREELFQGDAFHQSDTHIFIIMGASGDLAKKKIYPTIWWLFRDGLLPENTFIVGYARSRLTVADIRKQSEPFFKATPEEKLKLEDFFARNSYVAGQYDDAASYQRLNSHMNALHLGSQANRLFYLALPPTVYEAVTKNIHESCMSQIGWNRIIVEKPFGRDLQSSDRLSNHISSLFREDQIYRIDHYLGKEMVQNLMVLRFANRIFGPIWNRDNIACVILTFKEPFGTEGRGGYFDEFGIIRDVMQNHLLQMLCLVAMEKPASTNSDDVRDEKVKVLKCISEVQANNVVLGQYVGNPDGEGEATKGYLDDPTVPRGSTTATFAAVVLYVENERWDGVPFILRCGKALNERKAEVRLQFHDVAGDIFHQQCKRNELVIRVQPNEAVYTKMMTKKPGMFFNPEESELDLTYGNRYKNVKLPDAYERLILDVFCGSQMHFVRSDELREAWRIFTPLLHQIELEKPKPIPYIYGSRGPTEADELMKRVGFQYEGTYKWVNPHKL
Chain of Alkaline phosphatase, placental type (P05187 whole entry): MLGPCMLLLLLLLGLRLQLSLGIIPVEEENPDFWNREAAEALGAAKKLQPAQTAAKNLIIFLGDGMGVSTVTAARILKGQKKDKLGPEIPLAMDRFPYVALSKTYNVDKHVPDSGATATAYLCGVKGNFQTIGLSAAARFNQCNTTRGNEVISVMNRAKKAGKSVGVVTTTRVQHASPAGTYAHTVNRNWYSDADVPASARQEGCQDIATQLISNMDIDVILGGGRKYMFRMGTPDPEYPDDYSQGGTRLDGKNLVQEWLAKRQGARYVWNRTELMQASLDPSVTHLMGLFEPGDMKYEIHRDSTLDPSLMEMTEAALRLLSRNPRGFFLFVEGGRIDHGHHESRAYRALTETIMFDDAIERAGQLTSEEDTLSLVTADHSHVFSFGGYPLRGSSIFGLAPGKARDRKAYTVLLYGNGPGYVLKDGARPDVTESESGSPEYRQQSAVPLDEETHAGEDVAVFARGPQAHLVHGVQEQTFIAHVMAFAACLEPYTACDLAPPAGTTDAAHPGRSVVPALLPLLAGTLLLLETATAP
Chain of G-protein coupled receptor 55 (Q9Y2T6 whole entry): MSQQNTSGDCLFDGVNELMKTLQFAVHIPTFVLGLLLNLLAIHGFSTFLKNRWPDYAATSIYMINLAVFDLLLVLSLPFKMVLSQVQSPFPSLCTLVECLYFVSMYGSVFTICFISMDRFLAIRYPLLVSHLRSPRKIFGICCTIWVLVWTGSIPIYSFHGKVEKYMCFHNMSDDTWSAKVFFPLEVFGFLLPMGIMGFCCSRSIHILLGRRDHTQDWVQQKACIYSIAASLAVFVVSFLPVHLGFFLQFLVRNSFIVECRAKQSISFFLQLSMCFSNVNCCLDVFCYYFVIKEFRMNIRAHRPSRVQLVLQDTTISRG

SMILES: COC(=O)c1c(-c2ccc(SC)cc2)sc2ccc(OC)cc12
- IC50 (Bcl-2-related protein A1): > 20 µM (inactive)
- IC50 [1]: 18.9 µM (active)
- IC50 [2]: > 20 µM (inactive)

SMILES: CC1(C)CC(=O)c2c(n[nH]c2Cc2ccccc2)C1
- IC50 [3]: > 100 µM (not active)
- IC50 [4]: > 100 µM (inactive)
- IC50 [5]: 1.24 µM (active)

SMILES: Cc1ccc(/C=C2\Sc3ccccc3C2=O)s1
- IC50 (CHO-K1): > 66.2 µM (inactive)
- IC50 [6]: > 49.7 µM (inactive)
- IC50 [7]: 23.1 µM (inactive)
- IC50 [8]: 22.5 µM (inactive)
- AC50 [9]: 11.8 µM (active)
- EC50 (Protein RecA): 4.87 µM (active)

SMILES: O=C(CCCN1C(=O)S/C(=C\C=C\c2ccccc2)C1=O)Nc1ccc(C(=O)O)cc1
- IC50 [10]: 1.26 µM (active)
- IC50 [11]: 9.54 µM (active)
- IC50 [12]: 12.9 µM (inactive)
- AC50 [9]: 39.2 µM (active)
- EC50 (Protein RecA): 51.2 µM (active)

SMILES: Cc1ccc(NC(=O)C2CC(=O)Nc3nc4ccccc4n32)c(C)c1 (configuration not stated)
- EC50 [13]: 34.5 µM (active)

SMILES: NCCNc1ccc(C(=O)N2c3ccccc3Sc3ccccc32)cc1[N+](=O)[O-]
- IC50 [14]: > 80 µM (inactive)
- AC50 [15]: 6.81 µM (active)
- IC50 (Bcl-2-related protein A1): > 20 µM (inactive)
- IC50 [1]: 9.58 µM (active)
- IC50 [2]: 10.9 µM (active)

SMILES: Cc1ccc(Sc2ccc(NC(=O)CCl)cc2)c(C)c1
- EC50 [16]: 9.67 µM (active)
- CC50 [17]: 9.81 µM (active)
- AC50 [9]: 2.5 µM (active)
- EC50 (Protein RecA): 0.718 µM (active)

SMILES: N#Cc1ccc(-n2c(-c3ccccc3)nnc2-c2ccccc2)cc1C#N
- CC50 [17]: > 40 µM (active)
- AC50 [9]: 3.83 µM (active)
- EC50 (Protein RecA): 3.36 µM (active)

SMILES: CCCN1C[C@@H]2C(CNC(=O)c3cc(Cl)cc(Cl)c3)[C@@H]2C1 (some centres not stated)
- EC50 [18]: 10 µM (active)

SMILES: CC(Cc1nnc(NC(=O)COc2ccc(F)cc2Cl)o1)CC(C)(C)C (configuration not stated)
- EC50 [18]: 1.2 µM (active)
